# Measured values: patent publication US10299502B2, “Method for producing an extract of a matrix of vegetable origin with a non-ionic amphiphilic compound as extraction adjuvant in an aqueous medium” (PIERRE FABRE DERMO-COSMETIQUE, priority 2015, dated 2019)
# Assays:
# [1] = Recovery of extracted α-mangostin by precipitation on dilution; assay type: physicochemical
# Text: The extract thus obtained may also be diluted in a volume of water optionally supplemented with one or more adjuvants selected from salts, acids or bases, so as to be at a final concentration of non-ionic amphiphilic compound below the sufficient concentration defined above. Thus, it is possible to recover the lipophilic compounds by precipitation and solid-liquid separation such as filtration or centrifugation.
# At 7% amyl xyloside, 100% of the α-mangostin extracted precipitates.
# [2] = Solubilization curves (Sudan red, α-mangostin) to determine the minimum hydrotrope concentration; assay type: physicochemical; conditions: deduced from solubilization curves in aqueous solution
# Procedure: The term “minimum hydrotrope concentration” refers to the concentration above which these non-ionic amphiphilic compounds begin to form aggregates, i.e., new microenvironments with physical properties different from those observed when the compound is diluted, and different from micellar behavior. This minimum hydrotrope concentration is specific to each non-ionic amphiphilic compound and generally has the order of magnitude of the molarity. It can be determined by several physicochemical methods, such as by measuring surface tension, conductivity or dynamic and static light scattering (Self-association of nicotinamide in aqueous solution: Light-scattering and vapor pressure osmometry studies (1996) 85(8): 848-853), or quite simply by establishing a solubilization curve of a lipophilic compound (solubilized solute content as a function of concentration of non-ionic amphiphilic compound). Sudan red, a lipophilic dye easily measured by spectrophotometry, can be used as reference. […]
# The solubilization curves of Sudan red in aqueous solutions of various non-ionic amphiphilic compounds at different concentrations were prepared. After saturation of the solutions with Sudan red and filtration, the Sudan red content solubilized in each solution is measured after dilution by UV spectrophotometry at 476 nm. […]
Compound,"% of α-mangostin recovered by precipitation/α-mangostin extracted ([1]; extraction concentration 59%, concentration after dilution 24%) [%]","% of α-mangostin recovered by precipitation/α-mangostin extracted ([1]; extraction concentration 40%, concentration after dilution 7%) [%]","% of α-mangostin recovered by precipitation/α-mangostin extracted ([1]; extraction concentration 40%, concentration after dilution 7%, listed as amyl xyloside) [%]","% of α-mangostin recovered by precipitation/α-mangostin extracted ([1]; extraction concentration 40%, concentration after dilution 15%) [%]","% of α-mangostin recovered by precipitation/α-mangostin extracted ([1]; extraction concentration 40%, concentration after dilution 15%, listed as amyl xyloside)",MHC (minimum hydrotrope concentration) [2]
"CC(C)(O)CCO [Isopentyldiol, 3-methyl-1,3-butanediol]",66,–,–,–,–,–
amyl xyloside,–,100,100,12,little α-mangostin precipitates,5-10%
